Measured values published in article PMC2957478 (Bioorganic & medicinal chemistry letters, 2009).

Molecular target: PAI-1 (Homo sapiens, UniProt P05121)
Settings: for inhibitory activity towards PAI-1 (in words): in vitro

PAI-1, sequence (P05121 24-402, species assumed): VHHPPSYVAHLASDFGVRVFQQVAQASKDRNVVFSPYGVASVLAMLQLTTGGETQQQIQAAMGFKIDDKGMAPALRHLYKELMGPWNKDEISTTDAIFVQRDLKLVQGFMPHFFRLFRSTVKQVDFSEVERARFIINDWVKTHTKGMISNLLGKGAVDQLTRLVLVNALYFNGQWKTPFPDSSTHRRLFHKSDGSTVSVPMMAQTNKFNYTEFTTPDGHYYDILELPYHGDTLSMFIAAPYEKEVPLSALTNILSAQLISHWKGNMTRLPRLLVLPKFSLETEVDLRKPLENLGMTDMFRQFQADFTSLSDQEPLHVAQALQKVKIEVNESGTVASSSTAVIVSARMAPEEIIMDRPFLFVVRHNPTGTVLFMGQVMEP

| SMILES | inhibitory activity towards PAI-1 (in words) | other results |
| --- | --- | --- |
| CCN(CCN(CC)S(=O)(=O)c1ccc(O)c(O)c1)S(=O)(=O)c1ccc(O)c(O)c1 [3b] | – | increase in inhibitor potency against PAI-1 compared to the non-alkylated version 3a (ratio of IC50 values vs 3a): about 55 fold |
| O=S(=O)(c1ccc(O)c(O)c1)N1CCN(S(=O)(=O)c2ccc(O)c(O)c2)CC1 [compound 4] | lacked significant inhibitory activity towards PAI-1 | – |
| CCN(CCN(CC)S(=O)(=O)c1cc(O)ccc1O)S(=O)(=O)c1cc(O)ccc1O [compound 7] | lacked significant potency towards PAI-1 | – |
| CCN(CCN(CC)S(=O)(=O)c1cc(F)c(O)c(F)c1)S(=O)(=O)c1cc(F)c(O)c(F)c1 [compound 13, bis-3,5-difluoro-4-hydroxybenzenesulfonamide] | – | fold less potent against PAI-1 than the 3,4-dihydroxy version (3b) (ratio of IC50 values vs 3b): roughly 15 fold |
